According to patent publication US20250201957A1, “SEPARATION RECOVERY METHOD OF METAL IONS AND ACIDIC METAL EXTRACTANT” (FUJIFILM Corporation, priority 2022, published 2025):

Assay: pKa of metal extractant by neutralization titration
Assay type: physicochemical
Conditions: not given
Excerpt: The acidic metal extractant includes two or more coordinating functional groups, and at least one of the coordinating functional groups includes a carboxy group or each of acidic coordinating functional groups where one of R^C's represents a hydrogen atom. In the present invention, the acidic metal extractant is an acidic metal extractant for dissociating hydrogen ions (H^+) and can be defined by an acid dissociation constant pKa. For example, an acidic metal extractant having pkA of 0.1 to 12 is preferable, an acidic metal extractant having pkA of 0.5 to 12 is more preferable, and an acidic metal extractant having pkA of 1 to 8 is still more preferable. In the present invention, the pKa is a value measured by neutralization titration.
Regarding the synthesized or prepared acidic metal extractant, the molecular weight and the pKa calculated using the above-described method are shown in Table 1-2.

| Compound | pKa |
| --- | --- |
| CCCCC(CC)COP(=O)(CP(=O)(OCC)OCC(CC)CCCC)OCC (stereo not shown) [E-7] | None |
| Versatic acid 10 [VA-10, reference compound] | 7.9 |

Same assay, conditions: read-out: pKa

| Compound | pKa |
| --- | --- |
| CCCCC(CC)COP(=O)(O)CCCP(=O)(O)OCC(CC)CCCC (stereo not shown) [E-1] | 1.1 |
| CCCCC(CC)COP(=O)(O)CP(=O)(O)OCC(CC)CCCC (stereo not shown) [E-2] | 0.8 |
| CCCCC(CC)COP(=O)(O)CP(=O)(OCC)OCC(CC)CCCC (stereo not shown) [E-3] | 2.1 |
| CCCCC(CC)CC(CC(CC)CCCC)(C(=O)O)C(=O)O (stereo not shown) [E-4] | 6.5 |
| CCCCC(CC)COP(=O)(O)CCP(=O)(O)OCC(CC)CCCC (stereo not shown) [E-5] | 0.9 |
| CCCCCCCCOP(=S)(S)CP(=S)(S)OCCCCCCCC (stereo not shown) [E-6] | 0.3 |
| CCCCC(CC)COP(=O)(O)C(C)(O)P(=O)(O)OCC(CC)CCCC (stereo not shown) [E-8] | 1.1 |
| CCCCC(CC)COP(=O)(O)CC(CC)CCCC (stereo not shown) [PC-88A, mono-2-ethylhexyl (2-Ethylhexyl)phosphonate, reference compound] | 4.6 |
